From PubChem BioAssay AID2060490 (Molecular Pharmacology Branch, DTP, NCI, 2025)
Where “and” joins values, the source holds several entries; their conditions need not be identical. Equal entries are not always repeated. One block for each compound: values may come before it.

System: 885512-296-R-J2-PDC complex spheroid viability
Assay: Anticancer human tumor 885512-296-R-J2-PDC patient-derived breast carcinoma cell line growth inhibition [GQUAD]
Conditions: for viability, T/C: stronger effect = lower value; for IC50: curve of first compound
Excerpt: DNA G-quadruplex Stabilizer Agents in Combinations in Complex Spheroids
A high-throughput screen of multi-cell type tumor spheroids was designed to identify active combinations of DNA G-quadruplex stabilizer agents and targeted small molecules. Complex spheroids include a stromal component modeled by human endothelial cells (HUVEC) and fibroblasts modeled by human mesenchymal stem cells (MSCs). The concentration ranges selected for each drug and investigational agent were based upon clinically achievable concentrations if the clinical Cmax of the agent was known.
Compounds. The drugs and investigational agents: pidnarulex (CX-5461; NSC782164), APTO-253 (NSC789042), BRACO-19 (NSC847499), peposertib (NSC802822), ceralasertib (NSC780249), elimusertib (NSC800525), camonsertib (NSC841442), AZD-1390 (NSC803789), olaparib (NSC753686), talazoparib (NSC767125), ART-558 (NSC835418), sotorasib (NSC818433), MRTX-1133 (NSC836407), SN-38 (NSC673596), topotecan (NSC609699), etoposide (NSC141540), doxorubicin (NSC123127), gemcitabine (NSC613327), 5-fluorouracil (NSC19893), paclitaxel (NSC125973), vemurafenib (NSC761431), panobinostat (NSC761190), R-306465 (JNJ-16241199; NSC773264), adavosertib (NSC754352), TP-3654 (NSC805149), carboplatin (NSC241240), KSQ-4279 (NSC840948), and staurosporine (NSC755774) were obtained from the National Cancer Institute (NCI) Developmental Therapeutics Program Chemical Repository (34). The FDA-approved anticancer drug set is available from the NCI Developmental Therapeutics Program. […] The stock solutions were prepared in dimethyl sulfoxide (DMSO, Sigma-Aldrich, St. Louis, MO, cat. D2650) at 800-fold the tested concentration and stored at -70 degrees C prior to their use. All drugs and investigational agents were tested over a range starting from a high concentration at or near the clinical Cmax and decreasing in half-log increments. If the clinical Cmax for an agent had not been determined, the highest concentration tested was 10 microM.
2.3 Cell Culture. All cells were maintained in an incubator at 37 degrees C and 5% CO2 with 95% humidity. The PDC lines were cultured according to standard operating procedures established by the NCI PDMR. All PDCs were thawed and cultured in Matrigel-coated flasks prepared with a working solution of 1X Ham's F-12 nutrient mix, without supplementation (Invitrogen, cat. 11765054), 100 U/mL penicillin-streptomycin (Invitrogen, cat. 15140122), and 2.5% Matrigel (Corning Inc., cat. 354248) for the first three passages. The 857933-349-R-J2-PDC line was cultured in 6C/Colon 1B media, which includes advanced DMEM/F-12 (Thermo Fisher Scientific, cat. 12634028), 10 mM HEPES (Thermo Fisher Scientific, cat. 15630080), 1X GlutaMAX supplement (Thermo Fisher Scientific, cat. 35050061), 0.1 mg/mL primocin (InvivoGen, cat. ant-pm-2), 10% defined fetal bovine serum, heat inactivated (HyClone Laboratories Inc., cat. SH30070.03HI), 50% L-WRN conditioned media (ATCC, cat. CRL-3276), 1.25 mM N-Acetyl-L-cysteine (Sigma-Aldrich, cat. A9165), 10 mM nicotinamide (Sigma-Aldrich, cat. N0636), 1X B-27 supplement (Thermo Fisher Scientific, cat. 17504044), 1X N-2 supplement (Thermo Fisher Scientific, cat. 17502048), 10 microM Y-27632 dihydrochloride (Tocris Bioscience, cat. 1254), and 50 ng/mL human EGF recombinant protein (Thermo Fisher Scientific, cat. PHG0311). The 485176-168-R4-J1-PDC line was cultured in Panc media, which includes all 6C/Colon 1B media components plus 100 ng/mL human FGF-10 (Thermo Fisher Scientific, cat. 100-26), 500 nM SB-431542 (Selleckchem, cat. S1067), and gastrin (Tocris, cat. 3006).
[…]

[1] = second compound 0.0316 µM, first compound 0.0316 µM
[2] = second compound 0.0316 µM, first compound 0.1 µM
[3] = second compound 0.0316 µM, first compound 0.316 µM
[4] = second compound 0.0316 µM, first compound 1 µM
[5] = second compound 0.0316 µM, first compound 3.16 µM
[6] = second compound 0.0316 µM, first compound 10 µM
[7] = second compound 0.1 µM, first compound 0.0316 µM
[8] = second compound 0.1 µM, first compound 0.1 µM
[9] = second compound 0.1 µM, first compound 0.316 µM
[10] = second compound 0.1 µM, first compound 1 µM
[11] = second compound 0.1 µM, first compound 3.16 µM
[12] = second compound 0.1 µM, first compound 10 µM
[13] = second compound 0.316 µM, first compound 0.0316 µM
[14] = second compound 0.316 µM, first compound 0.1 µM
[15] = second compound 0.316 µM, first compound 0.316 µM
[16] = second compound 0.316 µM, first compound 1 µM
[17] = second compound 0.316 µM, first compound 3.16 µM
[18] = second compound 0.316 µM, first compound 10 µM
[19] = second compound 1 µM, first compound 0.0316 µM
[20] = second compound 1 µM, first compound 0.1 µM
[21] = second compound 1 µM, first compound 0.316 µM
[22] = second compound 1 µM, first compound 1 µM
[23] = second compound 1 µM, first compound 3.16 µM
[24] = second compound 1 µM, first compound 10 µM
[25] = second compound 3.16 µM, first compound 0.0316 µM
[26] = second compound 3.16 µM, first compound 0.1 µM
[27] = second compound 3.16 µM, first compound 0.316 µM
[28] = second compound 3.16 µM, first compound 1 µM
[29] = second compound 3.16 µM, first compound 3.16 µM
[30] = second compound 3.16 µM, first compound 10 µM
[31] = second compound 10 µM, first compound 0.0316 µM
[32] = second compound 10 µM, first compound 0.1 µM
[33] = second compound 10 µM, first compound 0.316 µM
[34] = second compound 10 µM, first compound 1 µM
[35] = second compound 10 µM, first compound 3.16 µM
[36] = second compound 10 µM, first compound 10 µM
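Also: spheroids exposed to the compounds for one week.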
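For viability, T/C in this document: percent of tumor spheroid viability relative to DMSO vehicle control wells.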

Structure (SMILES): Cc1[nH]c2ccccc2c1CCNCc1ccc(/C=C/C(=O)NO)cc1
- viability, T/C (compound 0.000999 µM): 108% and 90.8% and 92.3%
- viability, T/C (compound 0.00316 µM): 93.8% and 86.2% and 86.1%
- viability, T/C (compound 0.00999 µM): 96.1% and 71.2% and 73.6%
- viability, T/C (compound 0.0316 µM): 112% and 42% and 57.7%
- viability, T/C (compound 0.0999 µM): 94.9% and 25.6% and 28.9%

Structure (SMILES): C=CCn1c(=O)c2cnc(Nc3ccc(N4CCN(C)CC4)cc3)nc2n1-c1cccc(C(C)(C)O)n1
- viability, T/C (compound 0.0316 µM): 94.9% and 110% and 103%
- viability, T/C (compound 0.1 µM): 92.2% and 91.9% and 92.6%
- viability, T/C (compound 0.316 µM): 99.1% and 52.3% and 57.8%
- viability, T/C (compound 1 µM): 125% and 7.26% and 11%

Structure (SMILES): COc1ncnc(C2CC2)c1-c1ncc2cnn(Cc3ccc(-c4nc(C(F)(F)F)cn4C(C)C)cc3)c2n1 + Cc1[nH]c2ccc(F)cc2c1-c1nc2c3cccnc3c3ncccc3c2[nH]1
- IC50 (second compound 0.0316 µM): 948 nM
- IC50 (second compound 0.1 µM): 660 nM
- IC50 (second compound 0.316 µM): 564 nM
- IC50 (second compound 1 µM): 93.9 nM
- IC50 (second compound 3.16 µM): < 31.6 nM
- IC50 (second compound 10 µM): < 31.6 nM
- viability, T/C [1]: 89.9%
- viability, T/C [2]: 82.6%
- viability, T/C [3]: 64.5%
- viability, T/C [4]: 52.1%
- viability, T/C [5]: 25.1%
- viability, T/C [6]: 2.97%
- viability, T/C [7]: 104%
- viability, T/C [8]: 83.5%
- viability, T/C [9]: 66.7%
- viability, T/C [10]: 38.7%
- viability, T/C [11]: 23.7%
- viability, T/C [12]: 2.95%
- viability, T/C [13]: 88.5%
- viability, T/C [14]: 78.3%
- viability, T/C [15]: 60.5%
- viability, T/C [16]: 34.5%
- viability, T/C [17]: 27.8%
- viability, T/C [18]: 2.76%
- viability, T/C [19]: 59.2%
- viability, T/C [20]: 49.4%
- viability, T/C [21]: 37.4%
- viability, T/C [22]: 28.5%
- viability, T/C [23]: 25.1%
- viability, T/C [24]: 2.31%
- viability, T/C [25]: 5.23%
- viability, T/C [26]: 4.49%
- viability, T/C [27]: 2.87%
- viability, T/C [28]: 4.14%
- viability, T/C [29]: 3.49%
- viability, T/C [30]: 0.54%
- viability, T/C [31]: 1.44%
- viability, T/C [32]: 1.29%
- viability, T/C [33]: 1.4%
- viability, T/C [34]: 2.23%
- viability, T/C [35]: 2.81%
- viability, T/C [36]: 0.35%

- IC50 (second compound 0.0316 µM): 198 nM
- IC50 (second compound 0.1 µM): 53.1 nM
- IC50 (second compound 0.316 µM): < 31.6 nM
- IC50 (second compound 1 µM): < 31.6 nM
- IC50 (second compound 3.16 µM): < 31.6 nM
- IC50 (second compound 10 µM): < 31.6 nM
Structure (SMILES): C=CCn1c(=O)c2cnc(Nc3ccc(N4CCN(C)CC4)cc3)nc2n1-c1cccc(C(C)(C)O)n1 + Cc1cnc(CNC(=O)c2c(=O)c3ccc(N4CCCN(C)CC4)nc3n3c2sc2ccccc23)cn1
- viability, T/C [1]: 91.2%
- viability, T/C [2]: 80.3%
- viability, T/C [3]: 29.2%
- viability, T/C [4]: 7.28%
- viability, T/C [5]: 2.83%
- viability, T/C [6]: 2.53%
- viability, T/C [7]: 58.3%
- viability, T/C [8]: 39.6%
- viability, T/C [9]: 19.6%
- viability, T/C [10]: 6.62%
- viability, T/C [11]: 2.73%
- viability, T/C [12]: 3.18%
- viability, T/C [13]: 21.2%
- viability, T/C [14]: 16.4%
- viability, T/C [15]: 12%
- viability, T/C [16]: 7.07%
- viability, T/C [17]: 3%
- viability, T/C [18]: 3.66%
- viability, T/C [19]: 22.6%
- viability, T/C [20]: 16.2%
- viability, T/C [21]: 10.8%
- viability, T/C [22]: 4.65%
- viability, T/C [23]: 2.76%
- viability, T/C [24]: 2.44%
- viability, T/C [25]: 21.4%
- viability, T/C [26]: 12.4%
- viability, T/C [27]: 6.15%
- viability, T/C [28]: 0.28%
- viability, T/C [29]: 0.16%
- viability, T/C [30]: 0.17%
- viability, T/C [31]: 0.12%
- viability, T/C [32]: 0.16%
- viability, T/C [33]: 0.16%
- viability, T/C [34]: 0.15%
- viability, T/C [35]: 0.81%
- viability, T/C [36]: 0.81%
